Common to all, as to assay type: biochemical
Test [1] addresses T1, MMP-1FL (full-length interstitial collagenase) (Homo sapiens, UniProt P03956).
T1 sequence (P03956 100-469): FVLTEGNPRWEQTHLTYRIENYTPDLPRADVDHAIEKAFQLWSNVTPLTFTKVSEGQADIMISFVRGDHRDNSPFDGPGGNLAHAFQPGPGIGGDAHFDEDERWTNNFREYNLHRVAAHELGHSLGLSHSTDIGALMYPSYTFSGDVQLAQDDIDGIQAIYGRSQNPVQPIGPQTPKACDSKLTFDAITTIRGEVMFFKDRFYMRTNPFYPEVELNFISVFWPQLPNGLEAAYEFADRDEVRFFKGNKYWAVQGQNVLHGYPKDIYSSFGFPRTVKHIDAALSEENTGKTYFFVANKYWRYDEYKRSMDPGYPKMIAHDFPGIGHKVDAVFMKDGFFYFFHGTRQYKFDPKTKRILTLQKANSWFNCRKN
Description: Thiopeptolide substrate hydrolysis inhibition assay, MMP-1FL. Particulars: Table II; micromolar concentration; HEPES pH 7.0. From the text: (§1) Thiopeptolide substrates show virtually no decomposition or hydrolysis at or below neutral pH in the absence of a matrix metalloproteinase enzyme.

Test [2] has as its target T2, MMP-7FL (full-length matrilysin) (Homo sapiens, UniProt P09237).
T2 sequence (P09237 95-267): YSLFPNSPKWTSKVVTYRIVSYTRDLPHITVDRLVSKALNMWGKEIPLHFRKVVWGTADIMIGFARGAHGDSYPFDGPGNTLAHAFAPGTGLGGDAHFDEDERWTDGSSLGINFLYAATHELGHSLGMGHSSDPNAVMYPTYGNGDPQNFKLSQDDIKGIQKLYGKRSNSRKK
Description: Thiopeptolide substrate hydrolysis inhibition assay, MMP-7FL. Particulars: Table II; micromolar concentration; HEPES pH 7.0.
From the text: as §1

The target of test [3] is MMP-14CD (catalytic domain of MMP-14) (Homo sapiens, UniProt P50281). Description: Thiopeptolide substrate hydrolysis inhibition assay, MMP-14CD. Particulars: Table II; micromolar concentration; HEPES pH 7.0.
From the text: as §1

The target of test [4] is MMP-13CD (catalytic domain of collagenase-3) (Homo sapiens, UniProt P45452). Description: Thiopeptolide substrate hydrolysis inhibition assay, MMP-13CD.
From the text: as §1

For the next test, the target named is T3, MMP-12CD (Homo sapiens, UniProt P39900).
T3 construct: 12CD
Description: Thiopeptolide substrate hydrolysis inhibition assay, MMP-12CD. As to conditions: Table II; micromolar concentration; HEPES pH 7.0.
From the text: as §1

In test [5] the target is T4, MMP-2FL (full length Gelatinase A) (Homo sapiens, UniProt P08253).
T4 sequence (P08253 110-660): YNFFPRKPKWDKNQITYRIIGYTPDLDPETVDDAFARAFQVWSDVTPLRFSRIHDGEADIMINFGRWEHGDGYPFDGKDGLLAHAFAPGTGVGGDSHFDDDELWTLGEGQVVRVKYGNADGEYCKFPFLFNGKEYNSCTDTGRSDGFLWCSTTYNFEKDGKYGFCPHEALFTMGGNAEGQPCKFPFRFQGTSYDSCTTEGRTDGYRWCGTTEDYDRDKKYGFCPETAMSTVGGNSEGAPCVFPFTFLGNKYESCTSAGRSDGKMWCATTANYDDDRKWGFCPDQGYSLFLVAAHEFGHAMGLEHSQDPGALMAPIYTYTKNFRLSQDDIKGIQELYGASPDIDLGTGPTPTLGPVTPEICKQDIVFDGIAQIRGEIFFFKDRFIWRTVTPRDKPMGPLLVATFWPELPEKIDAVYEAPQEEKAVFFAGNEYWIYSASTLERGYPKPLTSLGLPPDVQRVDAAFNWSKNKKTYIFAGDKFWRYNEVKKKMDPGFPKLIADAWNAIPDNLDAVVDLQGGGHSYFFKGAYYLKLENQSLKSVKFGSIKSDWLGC
Description: Thiopeptolide substrate hydrolysis inhibition assay, MMP-2FL. As to conditions: Table II; micromolar concentration; HEPES pH 7.0.
From the text: as §1

Test [6] concerns the target MMP-3CD (catalytic domain of stromelysin-1) (Homo sapiens, UniProt P08254). Description: Thiopeptolide substrate hydrolysis inhibition assay, MMP-3CD. Particulars: Table II; micromolar concentration; MES buffer pH 6.0. As for the experimental part: as §1
It should be appreciated that the assay buffer used with MMP-3CD is 50 mM N-morpholinoethanesulfonate (“MES”) at pH 6.0 rather than the HEPES buffer at pH 7.0 described above.

Test [7] addresses MMP-9FL (full-length Gelatinase B) (Homo sapiens, UniProt P14780). Description: Thiopeptolide substrate hydrolysis inhibition assay, MMP-9FL. Particulars: Table II; micromolar concentration; HEPES pH 7.0.
From the text: as §1

The mark [8] stands for this setting: Table II, micromolar concentration, HEPES pH 7.0, read-out: IC50 MMP-13CD.

Molecules are shown by their SMILES. pIC50: −log10 of the molar value. Like-named read-outs stand apart in the source and are kept apart here.

T3 sequence (P39900 106-263 limits assumed): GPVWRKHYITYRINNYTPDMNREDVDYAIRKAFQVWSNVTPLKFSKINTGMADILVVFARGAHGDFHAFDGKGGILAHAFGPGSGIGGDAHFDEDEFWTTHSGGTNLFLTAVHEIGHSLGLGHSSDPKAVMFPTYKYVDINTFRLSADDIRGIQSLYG
Sequence of MMP-3CD (catalytic domain of stromelysin-1) (P08254 100-272 limits assumed): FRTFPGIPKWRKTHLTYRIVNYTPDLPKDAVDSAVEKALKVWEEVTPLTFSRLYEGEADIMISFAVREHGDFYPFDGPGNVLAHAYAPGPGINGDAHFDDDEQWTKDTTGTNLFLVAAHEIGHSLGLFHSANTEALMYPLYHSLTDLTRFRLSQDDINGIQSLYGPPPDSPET
Sequence of MMP-9FL (full-length Gelatinase B) (P14780 94-707, species assumed): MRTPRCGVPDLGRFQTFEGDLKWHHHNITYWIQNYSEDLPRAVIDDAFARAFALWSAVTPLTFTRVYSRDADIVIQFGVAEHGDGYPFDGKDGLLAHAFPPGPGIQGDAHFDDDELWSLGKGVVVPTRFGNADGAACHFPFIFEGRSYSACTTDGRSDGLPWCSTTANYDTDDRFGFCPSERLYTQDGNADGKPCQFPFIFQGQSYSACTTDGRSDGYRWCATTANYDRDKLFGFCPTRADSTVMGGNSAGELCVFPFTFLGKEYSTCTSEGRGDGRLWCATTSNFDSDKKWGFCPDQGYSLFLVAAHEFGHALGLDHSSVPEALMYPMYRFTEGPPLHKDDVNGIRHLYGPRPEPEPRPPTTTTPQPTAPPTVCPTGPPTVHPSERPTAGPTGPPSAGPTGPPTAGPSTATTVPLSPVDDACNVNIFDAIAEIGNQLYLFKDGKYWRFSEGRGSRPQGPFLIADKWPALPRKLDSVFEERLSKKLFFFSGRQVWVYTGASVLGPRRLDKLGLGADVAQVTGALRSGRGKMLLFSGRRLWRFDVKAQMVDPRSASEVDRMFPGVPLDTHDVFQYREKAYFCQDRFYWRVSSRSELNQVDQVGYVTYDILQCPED

On to `COc1cccc(CNC(=O)c2cc3c(=O)n(Cc4ccc(S(=O)(=O)N5CCC(C)CC5)cc4)c(=O)n(C)c3s2)c1` [Example 47, 1-Methyl-3-[4-(4-methyl-piperidine-1-sulfonyl)-benzyl]-2,4-dioxo-1,2,3,4-tetrahydro-thieno[2,3-d]pyrimidine-6-carboxylic acid 3-methoxy-benzylamide], for which the pIC50 in test [1] was 4.52; in test [2], 4.85; in test [3] it was 5.00; in test [4] (setting [8]) it was 7.42; against MMP-12CD it was 4.52; in test [5] it was 4.52. Also, the pIC50 in test [6] and in test [7] was 4.52 throughout.

For `COc1ccc(CNC(=O)c2cc3c(=O)n(CCOc4ccc(Br)cc4)c(=O)n(C)c3s2)cc1` [Example 232, 3-[2-(4-Bromo-phenoxy)-ethyl]-1-methyl-2,4-dioxo-1,2,3,4-tetrahydro-thieno[2,3-d]pyrimidine-6-carboxylic acid 4-methoxy-benzylamide], the pIC50 is 4.52 in test [1]; 4.52 in test [2]; 4.52 in test [3]; 6.76 in test [4] (Table I, thiopeptolide substrate, HEPES pH 7.0, 22° C., read-out: MMP-13CD IC50); 6.74 in test [4] (setting [8]); 4.52 against MMP-12CD. In addition, the negative logarithm of the IC50 (pIC50) is 4.52 in test [5], 4.77 in test [6] and 4.52 in test [7].

For orientation: pIC50 means the negative decadic logarithm of the IC50, by convention in mol/L.
